Consider 6 compounds from patent publication US20080027129A1 (L'OREAL, priority 2006, published 2008).

Read-outs that look alike come from different tables or passages of the source.

The subject of one series is GSH. The following applies: described in the literature; cited from earlier work.
In series [1] the test system is normal human melanocytes (NHM). Description: reactive oxygen species (ROS) generated by an H2O2 stress in cultured normal human melanocytes. Format: cell-based. Particulars: NHM pretreated 12 h/18 h with compound, H2DCFDA 10 μM, H2O2 250 μM, read after 15 minutes; FIG. 1.
Procedure: Protocol for measuring the reactive oxygen species (ROS) generated by an H2O2 stress in cultured normal human melanocytes (NHM)
The normal human melanocytes (NHMs) were inoculated at D0 at the density of 4×10^4 cells/cm^2. […] After 20 minutes, the H2DCFDA solution was replaced with the culture medium. The NHMs were left for 30 minutes before adding the H2O2 solution (250 μM). The fluorescence was measured after 15 minutes in a fluoroscan (excitation: 485 nm, emission: 538 nm).
The compounds studied were used depending on their properties (concentration, preincubation time). N-Acetylcysteine (A9165-Sigma) was used as a reference molecule. The melanocytes were pretreated, 12 h/18 h at 37° C., with the compound studied in the culture medium, before being brought into contact for 20 minutes with H2DCFDA (10 μM in PBS). The H2DCFDA solution was then replaced with the culture medium containing the active agent studied. After incubating for 30 minutes the oxidative stress was induced by addition of 250 μM of H2O2 in the culture medium. The fluorescence was measured after 15 minutes in a fluoroscan (excitation: 485 nm, emission: 538 nm).
The results represent the crude fluorescence data, from which the auto-fluorescence values of “blank” cells, expressed in fluorescence units (fu), obtained during a representative experiment, have been deducted, see FIG. 1.
Series [2] concerns normal human melanocytes (NHMs). Description: viability of cultured normal human melanocytes after a dopamine stress (Alamar Blue). Format: cell-based. Further details: cell viability after dopamine stress: scale not given here. Particulars: for cell viability after dopamine stress / viability at 200 µM: D3, Alamar Blue; for viability at 200 µM: Homo sapiens, Melanocyte, compound 200 μM, read-out: cell viability after dopamine stress. Here is the method:
1-C-1. Effect of 3H-1,2-dithiole-3-thione (D3T) on the Viability of Cultured Normal Human Melanocytes (NHMs) After a Dopamine Stress:
The normal human melanocytes (NHMs) were inoculated at DO at the density of 1×10^4 cells/cm^2. After adhesion of the cells (3 h), the active agent studied was added to the culture medium. After 2 hours, the dopamine was added to the culture medium to begin the stress. At D3, the cell viability was measured using Alamar Blue (UP669413 UPTIMA, Interchim) according to the instructions of the supplier.
On the technique in general: Alamar Blue is a resazurin reagent that responds to reducing activity.

The viability is a read-out of living cells in per cent, often relative to untreated cells.

`S=c1ccss1` [D3T, 3H-1,2-dithiole-3-thione]: the “level of GSH” value in the series on GSH is on record as “increasing the level of GSH”. The “reactive oxygen species (ROS) induced by H2O2, fluorescence” value in series [1] is “decrease of the reactive oxygen species”.
As for `S=C=NCCc1ccccc1` [phenethyl isothiocyanate], the “level of GSH” value with GSH is recorded as “increasing the level of GSH”.
`C=CCN=C=S` [allyl isothiocyanate]: in the series on GSH, the “level of GSH” value is “increasing the level of GSH”.
For the compound `C[S@@+]([O-])CCCCN=C=S` [sulforaphane], the “level of GSH” value in the series with GSH is on record as “increasing the level of GSH”.
Take anethole dithiolethione [ADT]: in series [2] (FIG. 3, versus N-acetylcysteine), the “survival of the cells under dopamine stress compared with the reference compound” value is given as “increases the survival of the cells with a better efficiency than N-acetylcysteine”. The “cell viability after dopamine stress” value in series [2] (compound 2 μM, dopamine 0.00 μM) is listed as 100.00; in series [2] (compound 2 μM, dopamine 20.00 μM) it was 97.48; in series [2] (compound 2 μM, dopamine 40.00 μM), 100.00; in series [2] (compound 2 μM, dopamine 60.00 μM) it was 98.74; in series [2] (compound 2 μM, dopamine 70.00 μM) it was 95.90; in series [2] (compound 2 μM, dopamine 80.00 μM), 92.43. Besides, the “cell viability after dopamine stress” value is on record as 82.02 in series [2] (compound 2 μM, dopamine 90.00 μM); 51.42 in series [2] (compound 2 μM, dopamine 100.00 μM); 100.00 in series [2] (compound 15 μM, dopamine 0.00 μM); 92.68 in series [2] (compound 15 μM, dopamine 20.00 μM); 95.22 in series [2] (compound 15 μM, dopamine 40.00 μM); 95.54 in series [2] (compound 15 μM, dopamine 60.00 μM). The “cell viability after dopamine stress” value in series [2] (compound 15 μM, dopamine 70.00 μM) is 94.90; in series [2] (compound 15 μM, dopamine 80.00 μM), 94.90; in series [2] (compound 15 μM, dopamine 90.00 μM), 87.58; in series [2] (compound 15 μM, dopamine 100.00 μM), 81.21. The “level of GSH” value with GSH is “increasing the level of GSH”. For the same compound, the “reactive oxygen species (ROS) induced by H2O2, fluorescence” value in series [1] is “decrease of the reactive oxygen species”.
Regarding `CC(=O)N[C@@H](CS)C(=O)O` [NAC, N-Acetylcysteine, reference compound], the viability at 200 µM in series [2] (dopamine 0.00 μM) amounted to 100%; in series [2] (dopamine 20.00 μM), 102%; in series [2] (dopamine 40.00 μM) it was 102%; in series [2] (dopamine 60.00 μM), 99.7%; in series [2] (dopamine 70.00 μM) it was 95.7%; in series [2] (dopamine 80.00 μM), 89.4%. Besides, the viability at 200 µM in series [2] (dopamine 90.00 μM) was 77.7%; in series [2] (dopamine 100.00 μM), 23.8%.
